From patent US9492805B2, “Initiated chemical vapor deposition of vinyl polymers for the encapsulation of particles” (Massachusetts Institute of Technology, priority 2005, dated 2016)

Assay: Release of ibuprofen from pellets of 25 μm microcrystals in pH buffers, light absorption at 220 nm
Assay type: physicochemical
Conditions: pH 7.4
Text: In another example, 25 μm ibuprofen microcrystals were encapsulated with the iCVD P(MAA-EDMA) copolymer and likewise ibuprofen release was tracked over time at different pH conditions. FIG. 26a gives the time release profiles, comparing uncoated and coated ibuprofen at pH 1.2 and 7.4. […] This enhanced protection in acids would be important for drugs such as ibuprofen and other non-steroidal anti-inflammatory drugs that are known to cause stomach ulceration and hemorrhaging, leading to mucosal damage and severe blood loss with acute dosage and prolonged administration. [S. E. Gabriel, L. Jaakkimainen, C. Bombardier, Ann. Intern. Med. 1991, 115, 787-796; and [ M. M. Wolfe, D. R. Lichtenstein, G. Singh, N. Engl. J. Med. 1999, 340, 1888-1899.] The increase in drug dissolution and activity by using finer drug particles would likely exacerbate this problem. […]
Release Measurements. […] For fluorescein, release was monitored at 490 nm, comparing fluorescein layered on silicon substrates that were exposed or encapsulated with an iCVD P(MAA-EDMA) coating. For ibuprofen, 25 μm ibuprofen microcrystals (DuPont), that were bare or encapsulated with an iCVD P(MAA-EDMA) coating, were compressed into pellets and their release monitored at 220 nm. Absorption was measured on a Varian Cary 6000i.

release of ibuprofen at near neutral pH: relatively fast
Structure (SMILES): CC(C)Cc1ccc(C(C)C(=O)O)cc1 (stereo not shown) [ibuprofen]
